In patent US7410945B2, “Treatment of inflammatory bowel disease” (The University of Queensland, priority 2002, dated 2008):
“Also recorded” adds a separate entry of the source.

Legend:
[1] = system: TNBS-induced colitis in rats; assay: TNBS-induced colitis in rats, acute 24-hour study; assay type: in vivo, rat; details: for colon macroscopic score: scale 0-13
Procedure: Two time-frames were chosen for this study, an acute time frame (24 hours), and a chronic time frame (8-days). During the course of the study both body weight and food eaten were measured daily. In the 24-hour study, all drug treatments commenced 2 days prior to instillation of TNBS (prevention). PMX53-, prednisolone- and combination-treated rats were treated once daily, and C3a antagonist-treated rats were dosed twice daily. Rats treated with the anti-TNF-α monoclonal antibody, infliximab, were dosed intravenously on one occasion, 2 days prior to TNBS instillation.
Statistical significance was assessed at P<0.05.

[2] = system: TNBS-induced colitis in rats; assay: TNBS-induced colitis in rats, chronic 8-day study
Procedure: Male Wistar rats (250-300 g) were starved for 24 hours prior to being anaesthetised with ketamine (80 mg/kg i.p.) and xylazine (8 mg/kg i.p.). […] 120 mg/kg TNBS (50 mg/mL solution) along with 250 μL ethanol (100%) was then instilled to rats, which remained in the head-down position for 30 min to prevent leakage. Sham-operated rats (rats without colitis) received either saline alone or 250 μL ethanol and saline. Rats were then allowed to recover under observation.
At the completion of each experiment, rats were anaesthetized with zolazapam (50 mg/kg, IP) and xylazine (12 mg/kg, IP), and blood was collected and serum stored at −20° C. for later determination of TNF-α concentrations. Colons were dissected, and the distal 8-cm rinsed with saline and scored for clinical macroscopic damage by an independent blinded observer, using a scale of 0-13 as set out below (Bobin-Dubigeon et al, 2001). A section of the affected colon was then collected, weighed, placed in an 80° C. oven for 24 h, then reweighed and the wet-to-dry weight ratio determined as a measure of colon oedema (Rachmilewitz et al., 1989). A separate section of affected colon was also collected and homogenized with 1 mL phosphate buffered saline, sonicated for 20 seconds and centrifuged (14 000×g, 10 min). The resulting supernatant was then either stored (−20° C.) for later TNF-α determination, or used immediately in an assay for the determination of myeloperoxidase (MPO) levels. Briefly, the assay involved the addition of 20 μL substrate (o-dianisidine, 2.85 mg/mL, Sigma, U.S.A.; and 0.85% hydrogen peroxidase) to a 1:40 dilution of supernatant in phosphate buffered saline. […] Results for colon MPO content were converted to absorbance units/g tissue. Additional sections of colon were removed and stored in 10% formalin for histopathological analysis. Fixed colonic samples were embedded in paraffin wax, and sections were stained using a haematoxylin and eosin stain, photographed and examined by an independent observer in a blinded fashion. Tissue and serum TNF-α levels were determined from stored samples using an enzyme-linked immunoabsorbent assay as previously described (Arumugam et al, 2002), using undiluted samples. Results for colonic TNF-α content were then converted to pg TNF-α /g tissue.
In the 8-day study, drug-treated rats were treated both prior to colitis induction (2 days before; prevention) or following colitis induction (24 hours after; reversal).
All experimental results are expressed as means±standard error of the mean (SEM). Data analysis was performed using GraphPad Prism 3.0 software (GraphPad Software, Inc. USA). Statistical comparisons were made between drug-treated groups and colitis control animals using a one-way analysis of variance followed by a Dunnett comparison post-test analysis. Statistical significance was assessed at P<0.05.

C3a receptor = target: T1, C3a receptor (Homo sapiens, UniProt Q16581); details: Finch et al, 1999; cited from earlier work
T1 sequence (Q16581 1-482): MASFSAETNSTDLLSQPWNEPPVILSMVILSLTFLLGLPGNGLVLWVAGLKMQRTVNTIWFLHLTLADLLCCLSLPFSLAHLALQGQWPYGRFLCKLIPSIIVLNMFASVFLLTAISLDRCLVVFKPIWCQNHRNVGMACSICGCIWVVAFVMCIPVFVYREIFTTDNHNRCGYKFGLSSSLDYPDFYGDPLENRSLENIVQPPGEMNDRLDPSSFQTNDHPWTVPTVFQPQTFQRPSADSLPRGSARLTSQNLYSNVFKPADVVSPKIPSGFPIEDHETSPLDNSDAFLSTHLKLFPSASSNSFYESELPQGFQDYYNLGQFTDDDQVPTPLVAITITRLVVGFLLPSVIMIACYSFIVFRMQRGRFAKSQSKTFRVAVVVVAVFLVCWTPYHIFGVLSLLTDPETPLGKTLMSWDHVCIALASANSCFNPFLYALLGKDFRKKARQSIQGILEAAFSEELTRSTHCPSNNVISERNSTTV

membrane attack complex = details: Arumugam et al, 2003; cited from earlier work
C5a receptor = details: cited from earlier work
[3] = 8 days, post-treated 1 mg/kg/day SC, P>0.05
[4] = 8 days, pre-treated 1 mg/kg/day SC, P<0.05
[5] = 8 days, pre-treated rats, haematoxylin and eosin sections, vs drug-free rats
[6] = post-treatment (from 24 h after colitis induction; reversal)
[7] = pre-treatment (from 2 days before colitis induction)
[8] = 24 h, drug pre-treatment, vs drug-free colitis control
[9] = 24 h, pre-treated 10 mg/kg/day oral or 0.3 mg/kg/day SC, P<0.05 vs colitis control
[10] = 8 days, prior to induction (10 mg/kg/day oral and 0.3 mg/kg/day SC) or 24 h after induction (1 and 10 mg/kg/day oral), P<0.05
[11] = 8 days, prior to induction (10 mg/kg/day oral and 0.3 mg/kg/day SC) or 24 h after induction (1 and 10 mg/kg/day oral), P<0.05, listed as C5a antagonist
[12] = 8 days, pre-treated 3 mg/kg IV, P<0.05

NC(N)=NCCC[C@H](NC(=O)COCC(c1ccccc1)c1ccccc1)C(=O)O [SB 290157, Ph2CHCH2OCH2CO-Arg-OH, reference compound]
colon oedema (wet-to-dry weight ratio) ([1]; 24 h, C3a antagonist 30 mg/kg bid IP, pre-treatment): did not have a significant effect | overall disease pathology / parameters measured ([1]; 24 h study): effective in reducing some of the parameters measured; also recorded: able to modulate the pathology of IBD | macroscopic damage ([1]; 24 h study, 30 mg/kg i.p. twice daily, vs colitis control): reduced the intensity of macroscopic damage

C[C@]12C=CC(=O)C=C1CC[C@@H]1[C@@H]2[C@@H](O)C[C@@]2(C)[C@H]1CC[C@]2(O)C(=O)CO [prednisolone]
colon histopathology ([2]; 8 days, post-treated 1 mg/kg/day SC, FIG. 8D): showed no improvement in disease pathology; also recorded: IC infiltration, E, extensive haemorrhage (H) and erosion of ML | colonic MPO levels [2, 3]: did not show any improvement in colonic MPO levels | colonic tissue TNF-α levels [2, 3]: no significant reduction | food consumption [2, 3]: no improvement in food consumption | colon oedema (wet-to-dry weight ratio) ([2]; 8 days, post-treatment 1 mg/kg/day SC): no effect on reducing oedema | mortality ([2]; 8 days, post-treatment (24 h after induction)): no significant effect on reducing mortality | mortality rate ([2]; 8 days, pre-treated 1 mg/kg/day SC): 11% | colonic MPO levels [2, 4]: significantly reduced colonic MPO levels | food consumption [2, 4]: ate significantly more food than colitis control rats | colon oedema (wet-to-dry weight ratio) ([2]; 8 days, pre-treated 1 mg/kg/day SC, P>0.05): no significant reductions | change in body weight ([2]; 8 days, pre-treated or post-treated 1 mg/kg/day SC, P>0.05): lost weight over the 8 days, with no significant difference compared to colitis control rats; also recorded: lost considerable body weight | colon histopathology [2, 5]: showed an improvement in pathology | colon macroscopic score ([2]; Day 8, post-treated 1 mg/kg/day SC, P>0.05): did not have any improvement in macroscopic scores | colon macroscopic score ([2]; Day 8, pre-treated 1 mg/kg/day SC, P<0.05): significantly improved macroscopic scores | overall disease parameters / markers [2, 6]: reversal of pathology was not seen; also recorded: no appreciable therapeutic effects | overall disease parameters / markers [2, 7]: only prednisolone pre-treated rats displayed any improvement in the disease parameters measured; also recorded: effective at reducing the majority of parameters measured

AcF-[OPdChaWR] [PMX53]
colon TNF-α levels ([1]; 24-hour study): significantly reduced | colon oedema ([1]; 24 h, drug pre-treatment, vs colitis control): significantly reduced | colon MPO levels (neutrophil accumulation) [1, 8]: significantly reduced | colon MPO levels [1, 9]: significant improvement | colon oedema (wet-to-dry weight ratio) [1, 9]: significant reduction in wet-to-dry weight ratios | colon macroscopic score [1, 8]: significantly lower colon macroscopic scores | food consumption ([1]; 24 h after TNBS, drug pre-treatment from 2 days before TNBS, vs drug-free colitis control): higher body weights and food intake | change in body weight ([1]; 24 h after TNBS, drug pre-treatment, vs drug-free colitis control): higher body weights | overall disease pathology / parameters measured ([1]; 24 h study): significantly improves disease pathology | binding to the C3a receptor (C3a receptor): does not bind | effect on the formation of the membrane attack complex (membrane attack complex): no effect | specificity for the C5a receptor over other related human receptors (C5a receptor; Finch et al, 1999): specific for the C5a receptor over other related human receptors | specificity for the C5a receptor across species (C5a receptor; human, rat and dog, Woodruff et al, 2001): specific for the C5a receptor in human, rat and dog | colon histopathology ([2]; 8 days, post-treated 10 mg/kg/day oral (PO), FIG. 8C): decrease in inflammatory cell accumulation and haemorrhage formation | colon histopathology ([2]; 8 days, post-treated 10 mg/kg/day oral (PO), FIG. 8C, listed as C5a antagonist): showed an improvement in disease pathology; also recorded: IC infiltration and E, but with intact ML | deaths ([2]; 8 days, pre-treated 0.3 mg/kg SC): no deaths | colon histopathology [2, 5]: showed an improvement in pathology | colon oedema (wet-to-dry weight ratio) [2, 10]: significantly lower | colonic MPO levels (neutrophil accumulation) [2, 10]: significantly lower | colon oedema (wet-to-dry weight ratio) [2, 11]: significant improvement in colon wet-to-dry weight ratios; also recorded: significant reductions in wet-to-dry weight ratios | colonic MPO levels (neutrophil accumulation) [2, 11]: reduced to similar levels to those of the sham-operated animals | mortality rate ([2]; 8 days, prior to induction (10 mg/kg/day oral and 0.3 mg/kg/day SC) or 24 h after induction (1 or 10 mg/kg/day oral)): ≤ 20% | food consumption ([2]; 8 days, prior to induction (10 mg/kg/day oral and 0.3 mg/kg/day SC) or 24 h after induction (1 or 10 mg/kg/day oral), P<0.05): ate significantly more food | food consumption ([2]; 8 days, prior to induction (10 mg/kg/day oral and 0.3 mg/kg/day SC) or 24 h after induction (1 or 10 mg/kg/day oral), P<0.05, listed as C5a antagonist): ate significantly more food than colitis control rats | change in body weight ([2]; 8 days, prior to induction (10 mg/kg/day oral and 0.3 mg/kg/day SC) or 24 h after induction (1 or 10 mg/kg/day oral), P<0.05 vs colitis control): lost significantly less body weight | change in body weight ([2]; 8 days, prior to induction (10 mg/kg/day oral and 0.3 mg/kg/day SC) or 24 h after induction (1 or 10 mg/kg/day oral), P<0.05 vs colitis control, listed as C5a antagonist): gained significant weight; also recorded: gained substantial weight over the 8 days, with significantly higher weights compared to colitis control rats | colon macroscopic score ([2]; Day 8, prior to induction (10 mg/kg/day oral and 0.3 mg/kg/day SC) or 24 h after induction (1 or 10 mg/kg/day oral), P<0.05): significantly lower colon macroscopic scores | colon macroscopic score ([2]; Day 8, prior to induction (10 mg/kg/day oral and 0.3 mg/kg/day SC) or 24 h after induction (1 or 10 mg/kg/day oral), P<0.05, listed as C5a antagonist): significantly improved macroscopic scores | colonic tissue TNF-α levels ([2]; after 8 days, vs drug-free colitis control, P<0.05): significantly lower | mortality ([2]; over 8 days, vs drug-free colitis control (39%)): reduced mortality | overall disease parameters / markers [2, 6]: significant reduction in all disease markers | overall disease parameters / markers [2, 7]: markedly reduced all the disease markers measured | overall disease pathology ([2]; rat model of chronic colitis, pre- and post-treatment): both prevents and reverses disease pathology

infliximab
colon macroscopic score [1, 8]: significant improvement seen in all treatment groups except for infliximab | colonic MPO levels [2, 12]: significantly reduced colonic MPO levels | food consumption [2, 12]: ate significantly more food than drug-free rats | colon oedema (wet-to-dry weight ratio) ([2]; 8 days, pre-treated 3 mg/kg IV, P>0.05): no significant reductions | colon histopathology [2, 5]: showed an improvement in pathology | mortality ([2]; 8 days, pre-treatment 3 mg/kg IV): 20% | colon macroscopic score ([2]; Day 8, pre-treated 3 mg/kg IV, P<0.05): significantly decreased scores | change in body weight ([2]; Day 8, pre-treated 3 mg/kg IV, P>0.05): only a small weight gain at Day 8; however, these levels were not significantly higher than colitis control rats | overall disease parameters / markers [2, 7]: did reduce the severity of lesions, it was not as effective as the C5a antagonist or prednisolone | overall disease parameters / markers ([2]; pre-treatment (from 2 days before colitis induction), listed as Infliximab): significantly reduced disease parameters, however to a lesser extent than those observed in PMX53-treated rats
